A short description of data set [1]: MDA-MB-231 breast xenograft model, tolerability and surviving animals. The data set is classed as in vivo, female nude rats. As to conditions: Compound 1 50 mg/kg dosed 0.5 h or 16 h after vehicle for paclitaxel. How it is done: This study evaluated the antitumor activity and tolerability of Compound 1 in combination with paclitaxel in the triple negative breast cancer (TNBC) model, MDA-MB-231, in female NTac:NIH-Whn nude rats (Taconic).
Compound 1 (free base) and paclitaxel (Sandoz) was used in these studies. Paclitaxel was diluted as per manufacturer's instruction with sterile 5% (w/v) glucose solution to 1.5 mg/ml to administer 7.5 mg/kg in 5 ml/kg dose volume [final ethanol and Cremophor EL concentration was 10 and 15%, respectively in 5% (w/v) glucose solution]. Compound 1 was formulated in a liposomal formulation (Novartis) at 5 mg/ml to administer 50 mg/kg dose in 10 ml/kg dose volume.
MDA-MB-231, a triple negative breast cancer cell line, was obtained from ATCC cell bank. […] Tumor growth was monitored regularly post cell inoculation and animals were randomised into treatment groups (n=7-8) with a mean tumor volume of about 400 mm^3. […]
The vehicle for paclitaxel or paclitaxel was administered once a week (QW) as a slow bolus dose via a caudal vein 0.5 h or 16 h before the vehicle for Compound 1 or Compound 1 itself in liposomal formulation and these were administered by iv infusion over 15 minutes in a caudal vein. […] Tumor volumes were measured using calipers 2-3 times per week. Tumor size, in mm^3, was calculated from: (L×W^2×π/6), where W=width and L=length of the tumor. […]

Data set [2] concerns MDA-MB-436 breast cancer cell line. Nature of the data set: 72 hours CellTiter-Glo proliferation assay, MDA-MB-436. The data set is classed as cell-based. As to conditions: single agent, read-out: Abs IC50. As for the experimental part: (§1) Compounds were dissolved in 100% DMSO (Sigma, Catalog # D2438-50 ML) at a stock concentration of 10 mM and stored at −20° C. until use. Compounds were arrayed in 2 ml deep 96-well plates (Greiner bio-one, catalog number 780271) serially diluted 3-fold. Compound 1 was used over a concentration range of 0.0-10.0 μM. Paclitaxel was used over a concentration range of 0.0-1.0 μM in breast cancer cells and 0.0-2.0 μM range in lung cancer cells.
(§2) All cell lines were purchased from the American Type Culture Collection and cultured according to vendor recommendations. […] All cell lines were determined to be free of mycoplasma contamination by a PCR detection assay performed at Idexx Radil (Columbia, Mo., USA) and authenticated by SNP analysis. […] Cells were expanded to T-75 flasks and assessed for viability using a Beckman-Coulter ViCell counter prior to plating. […]
(§3) Cell proliferation was measured in 72 hours CellTiter-Glo™ (CTG) assays and all results shown are the result of at least triplicate measurements. […] After 72 hours of compound treatment the effects of compounds on cell proliferation was determined using the CellTiter-Glo™ Luminescent Cell Viability Assay (Promega, Catalog # G7573). This is a homogeneous method to determine the number of viable cells in culture based on quantitation of the ATP present, which signals the presence of metabolically active cells. […]

Data set [3] concerns MDA-MB-231 xenografts. Nature of the data set: MDA-MB-231 breast xenograft model, antitumor efficacy. The data set is classed as in vivo, female nude rats. As to conditions: Compound 1 50 mg/kg QW×7 iv infusion, liposomal formulation.
For data set [4], the system named is NCI-H522 lung cancer cell line. Nature of the data set: 72 hours CellTiter-Glo proliferation assay, NCI-H522. Format: cell-based. The following applies: single agent, read-out: Abs IC50. How it is done: as §1, §2, §3
(In general: ATP-based viability assays read luminescence as a measure of living cells.)

Some results are limits rather than exact numbers.

By IC50 is commonly meant the point on the concentration scale where inhibition reaches its midpoint. Consider `COc1ccccc1-c1nccc(COc2ccccc2C[C@@H](Oc2ncnc3sc(-c4ccc(F)cc4)c(-c4ccc(OCCN5CCN(C)CC5)c(Cl)c4C)c23)C(=O)O)n1` [Compound 1, (2R)-2-{[(5Sa)-5-{3-chloro-2-methyl-4-[2-(4-methylpiperazin-1-yl)ethoxy]phenyl}-6-(4-fluorophenyl)thieno[2,3-d]pyrimidin-4-yl]oxy}-3-(2-{[2-(2-methoxyphenyl)pyrimidin-4-yl]methoxy}phenyl)propanoic acid], for which, in data set [1], the tolerability entry is listed as “well tolerated”. For the same compound, the IC50 in data set [2] is > 10000 nM; in data set [4], 713 nM. Also, the efficacy entry in data set [3] is given as “no efficacy”.

The record behind these values is patent US10765680B2, “Combination of a MCL-1 inhibitor and a taxane compound, uses and pharmaceutical compositions thereof” (priority 2017, dated 2020).
